Reference: patent US10301295B2, “Herbicidal compounds” (Syngenta Participations AG, priority 2014, dated 2019)
Like-named read-outs stand apart in the source and are kept apart here.

Key:
Assay type in all cases: in vivo
[1] = test system: Alopecurus myosuroides (ALOMY); assay: Glasshouse assay for herbicidal activity, pre-/post-emergence (percentage phytotoxicity); details: Alopecurus myosuroides, Rate 250 g/ha, 100%=total damage, 0%=no damage
How it was run: (§1)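 Seeds sown in standard soil in pots, grown 1 day (pre-emergence) or ~12 days (post-emergence) before treatment. Glasshouse: warm species 24/18 °C, cool species 20/16 °C day/night, 16 h light, 65% humidity, watered twice daily. Visual phytotoxicity scored 15DAA (post) or 20DAA (pre); 0% none, 100% total damage.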

Avena fatua (AVEFA) = assay: as above; details: Avena fatua, Rate 250 g/ha, 100%=total damage, 0%=no damage
How it was run: as §1

Lolium perenne (LOLPE) = assay: as above; details: Lolium perenne, Rate 250 g/ha, 100%=total damage, 0%=no damage
How it was run: as §1

[2] = test system: Echinochloa crus-galli (ECHCG); assay: as above; details: Echinochloa crus-galli, Rate 250 g/ha, 100%=total damage, 0%=no damage
How it was run: as §1

wheat = assay: Post-emergence herbicidal activity against cereal crops (wheat) +/- safener, crop selectivity; details: 100%=total damage to plant, 0%=no damage; for Post-emergence herbicidal activity against wheat (percentage phytotoxicity), +CQC: 250 g/ha, plus safener cloquintocet-mexyl (CQC) applied at 50 g/ha; for percent phytotoxicity (crop damage) to wheat at 250 g/ha: Triticum aestivum, 360 h, without safener, read-out: Post-emergence herbicidal activity against wheat (percentage phytotoxicity), Wheat - CQC
How it was run: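 Test plants raised in pots in a glasshouse (24/18 °C warm or 20/16 °C cool species day/night, 16 h light, 65% humidity) and treated post-emergence about 12 days after sowing. Visual percentage phytotoxicity scored 15 days after application (0% = no damage, 100% = total damage).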

[3] = 360 h, post-emergence, visual assessment 15 DAA, read-out: Post-emergence herbicidal activity (percentage phytotoxicity), ALOMY POST
[4] = 480 h, pre-emergence, visual assessment 20 DAA, read-out: Pre-emergence herbicidal activity (percentage phytotoxicity), ALOMY PRE
[5] = post-emergence, 360 h, post-emergence, visual assessment 15 DAA, read-out: Post-emergence herbicidal activity (percentage phytotoxicity), AVEFA POST
[6] = pre-emergence, 480 h, pre-emergence, visual assessment 20 DAA, read-out: Pre-emergence herbicidal activity (percentage phytotoxicity), AVEFA PRE
[7] = post-emergence, 360 h, post-emergence, visual assessment 15 DAA, read-out: Post-emergence herbicidal activity (percentage phytotoxicity), LOLPE POST
[8] = pre-emergence, 480 h, pre-emergence, visual assessment 20 DAA, read-out: Pre-emergence herbicidal activity (percentage phytotoxicity), LOLPE PRE
[9] = post-emergence, 360 h, post-emergence, visual assessment 15 DAA, read-out: Post-emergence herbicidal activity (percentage phytotoxicity), ECHCG POST
[10] = pre-emergence, 480 h, pre-emergence, visual assessment 20 DAA, read-out: Pre-emergence herbicidal activity (percentage phytotoxicity), ECHCG PRE

Row | Structure (SMILES) | pest or weed control at 250 g/ha [1, 3] [%] | pest or weed control at 250 g/ha [1, 4] [%] | pest or weed control at 250 g/ha (Avena fatua (AVEFA); [5]) [%] | pest or weed control at 250 g/ha (Avena fatua (AVEFA); [6]) [%] | pest or weed control at 250 g/ha (Lolium perenne (LOLPE); [7]) [%] | pest or weed control at 250 g/ha (Lolium perenne (LOLPE); [8]) [%] | pest or weed control at 250 g/ha [2, 9] [%] | pest or weed control at 250 g/ha [2, 10] [%] | Post-emergence herbicidal activity against wheat (percentage phytotoxicity), +CQC (wheat) [%] | percent phytotoxicity (crop damage) to wheat at 250 g/ha (wheat) [%]
1 | Cc1cc(C)c(C2C(=O)CC(CCNC(=O)N(C)C)C2=O)c(C)c1 (stereo not drawn) [Compound A31] | 90 | 80 | 90 | 70 | 90 | 100 | 70 | 90 | 10 | 70
2 | Cc1cc(C)c(C2C(=O)CC(CCNS(=O)(=O)c3ccc(C(F)(F)F)cc3)C2=O)c(C)c1 (stereo not drawn) [Compound A74] | 50 | 70 | – | 90 | 60 | 70 | 60 | 70 | 0 | 10
3 | Cc1cc(C)c(C2C(=O)CC(CCNC(=O)NC(=O)c3ccc(Cl)cc3)C2=O)c(C)c1 (stereo not drawn) [Compound A51] | 90 | 70 | 80 | 30 | 90 | 60 | 90 | 90 | 80 | 80
4 | Cc1cc(C)c(C2C(=O)CC(CCNC(=O)NC(=O)c3c(F)cc(Cl)cc3F)C2=O)c(C)c1 (stereo not drawn) [Compound A64] | 90 | 100 | 90 | 80 | 100 | 80 | 90 | 80 | 80 | 90
5 | CC#Cc1cc(C)c(C2C(=O)CC(CCNC(=O)N(C)c3ccccn3)C2=O)c(C)c1.Cl (stereo not drawn) [Compound A22] | 80 | 70 | 100 | 100 | 90 | 100 | 100 | 100 | 30 | 80
6 | Cc1cc(C)c(C2C(=O)CC(CCNC(=O)NC(=O)c3ccccc3Cl)C2=O)c(C)c1 (stereo not drawn) [Compound A49] | 100 | 90 | 100 | 80 | 100 | 90 | 100 | 100 | 90 | 90
7 | Cc1cc(C)c(C2C(=O)CC(CCNc3ncc(C(F)(F)F)cc3Cl)C2=O)c(C)c1 (stereo not drawn) [Compound A36] | 90 | 60 | 100 | 90 | 100 | 90 | 90 | 90 | 10 | 80
